Reference: US20200085047A1, “Use of an Acyclic Picolinamide Compound as a Fungicide for Control of Phytopathogenic Fungi in Vegetables” (Dow AgroSciences LLC, priority 2017, published 2020)

How the values were obtained:
Type in all cases: in vivo
Sclerotinia sclerotiorum = experiment: Field assessment of Sclerotinia sclerotiorum (SCLESC) on lettuce, 2 day protectant; settings: 5% EC + Trycol
Text: Field Assessment of Sclerotinia sclerotiorum (SCLESC) on Lettuce:
A fungicidal treatment containing a 5% EC formulation of compound I plus an adjuvant (Trycol, 50% w/w at 0.2% v/v), was sprayed on head lettuce plants (LACSC) twice, the first application at the heading stage 36 days after planting, and the second application 7 days later. Formulations of compound I were applied at rates of 50, 100, and 150 grams of active ingredient per hectare (g ai/ha). The experimental plots were inoculated with sclerotinia rot pathogen 2 days after the first application. The treatment was part of an experimental trial designed as a randomized complete block with four replications and a plot of approximately 2×1 m, with formulations of compound I being applied at water volume of 800 L/ha.
Disease infection percentage was calculated by the equation (stem lesion lengths)/(total stem lengths)×100% per plant (6 plants per plot randomly). Sclerotinia rot infection was assessed four times, 7 days after application A (DAAA) plus 7, 14 and 21 DAAB. Area under the disease progress curve (AUDPC) was calculated for each plot using the sets of recorded visual infection data. Relative AUDPC (% control based on AUDPC) was calculated as percent of the nontreated control.

Erysiphe cichoracearum = experiment: Field assessment of Erysiphe cichoracearum (ERYSCI) on cucumber, 2 day curative; settings: 5% EC + Trycol
Text: Field Assessment of Erysiphe Cichoracearum (ERYSCI) on Cucumber:
In the curative trial, a fungicidal treatment containing a 5% EC formulation of compound I plus an adjuvant (Trycol, 50% w/w at 0.2% v/v), was sprayed on cucumber plants (CUMSA) twice, the first application at the fruiting stage 29 days after planting, with the second application after 7 days. Formulations of compound I were applied at rates of 50, 100 and 150 grams of active ingredient per hectare (g ai/ha). The experimental plots were inoculated with the powdery mildew pathogen 2 days before the first application (curative). The treatment was part of an experimental trial designed as a randomized complete block with four replications and a plot of approximately 2×1 m, with formulations of compound I being applied at water volume of 1200 L/ha based on seedling sizes.
Disease severity was assessed as percent diseased area of cucumber foliage per plant (6 plants per plot randomly). Powdery mildew disease severity was assessed four times, 7 days after application A (DAAA), plus 7, 14 and 21 DAAB. Area under the disease progress curve (AUDPC) was calculated for each plot using the sets of recorded visual infection data. Relative AUDPC (% control based on AUDPC) was calculated as percent of the nontreated control.

Corynespora cassiicola = experiment: Field assessment of Corynespora cassiicola (CORYCA) in tomato; settings: SC
Text: Field Assessment of Corynespora cassiicola (CORYCA) in Tomato:
A fungicidal treatment containing Compound I, applied in an SC formulation (MSO built-in) and tank mixed with an adjuvant (Agnique BP-420, 50% w/w at 0.2% v/v or Adsee C80W 80%), was sprayed on tomato plants (LYPES, Charger variety) at growth stage BBCH64 (4th flower open) at rates of 50, 75, 100, and 150 grams of active ingredient per hectare (g ai/ha). The experimental plots were inoculated with the target spot pathogen one day after initial application. The treatment was part of an experimental trial designed as a randomized complete block (RCB) with four replications and a plot of approximately 6×25 feet (ft). Compound I was applied at water volume of 100 gallons per acre (gal/acre), using a tractor sprayer (SCDISC D1 Nozzles) and pressurized at 200 psi.
Disease severity (percentage of visual diseased foliage (leaf) on whole plot) was assessed four times during the trial (1-20 days after application, DAA). Area under the disease progress curve (AUDPC) was calculated for each plot using the sets of recorded severity data. Relative AUDPC (% control based on AUDPC) was calculated as percent of the untreated control.

Colletotrichum coccodes = experiment: Field assessment of Colletotrichum coccodes (COLLCA) in tomato; settings: SC
Text: Field Assessment of Colletotrichum Coccodes (COLLCA) in Tomato:
A fungicidal treatment containing Compound I, applied in an SC formulation (MSO built-in) and tank mixed with an adjuvant (Agnique BP-420, 50% w/w at 0.2% v/v or Adsee C80W 80%), was sprayed on tomato plants (LYPES, Roma VS Saladette type variety) at growth stage 12 in vegetative growth at rates of 50, 75, 100, and 150 grams of active ingredient per hectare (g ai/ha). The experimental plots were run with natural infestation of the anthracnose pathogen and supplemented with additional inoculum about one day after the 1st application. The treatment was part of an experimental trial designed as a randomized complete block (RCB) with four replications and a plot of approximately 6.67×30 ft. Compound I was applied at water volume of 40 gal/acre, using a backpack sprayer (carbon dioxide (CO2), 8004VS FF nozzles) and pressurized at 38 psi.
Percent leaf severity was assessed three times during the trial (0-23 days after application 1). Area under the disease progress curve (AUDPC) was calculated for each plot using the recorded leaf severity data. Relative AUDPC (% control based on AUDPC) was calculated as percent of the untreated control.

[1] = Compound I 50 g/ha, Agnique BP420, 200 mL/ha
[2] = Compound I 50 g/ha, MSO, 100 g/ha
[3] = Compound I 75 g/ha, MSO, 150 g/ha
[4] = Compound I 100 g/ha, Adsee C80W 80%, 250 g/ha
[5] = Compound I 100 g/ha, Agnique BP420, 400 mL/ha
[6] = Compound I 100 g/ha, MSO, 200 g/ha
[7] = Compound I 150 g/ha, Agnique BP420, 600 mL/ha
[8] = Compound I 150 g/ha, MSO, 300 g/ha

COc1ccnc(C(=O)N[C@@H](C)C(=O)O[C@@H](C)C(c2ccc(F)cc2)c2ccc(F)cc2)c1OC(C)=O [Compound I, (S)-1,1-bis(4-fluorophenyl)propan-2-yl (3-acetoxy-4-methoxypicolinoyl)-L-alaninate]
Percent control based on AUDPC, SCLESC 2 DP (Sclerotinia sclerotiorum; 50 g ai/ha): B (51-75) | Percent control based on AUDPC, SCLESC 2 DP (Sclerotinia sclerotiorum; 100 g ai/ha): A (76-100) | Percent control based on AUDPC, SCLESC 2 DP (Sclerotinia sclerotiorum; 150 g ai/ha): A (76-100) | Percent control based on AUDPC, ERYSCI 2 DC (Erysiphe cichoracearum; 50 g ai/ha): A (76-100) | Percent control based on AUDPC, ERYSCI 2 DC (Erysiphe cichoracearum; 100 g ai/ha): B (51-75) | Percent control based on AUDPC, ERYSCI 2 DC (Erysiphe cichoracearum; 150 g ai/ha): C (26-50) | Percent Control of CORYCA (AUDPC) (Corynespora cassiicola; [1]): 53.1% | Percent Control of CORYCA (AUDPC) (Corynespora cassiicola; [2]): 55.2% | Percent Control of CORYCA (AUDPC) (Corynespora cassiicola; Compound I 75 g/ha, Agnique BP420, 300 mL/ha): 56.9% | Percent Control of CORYCA (AUDPC) (Corynespora cassiicola; [3]): 56.1% | Percent Control of CORYCA (AUDPC) (Corynespora cassiicola; [4]): 61.4% | Percent Control of CORYCA (AUDPC) (Corynespora cassiicola; [5]): 74.1% | Percent Control of CORYCA (AUDPC) (Corynespora cassiicola; [6]): 71.6% | Percent Control of CORYCA (AUDPC) (Corynespora cassiicola; [7]): 83.9% | Percent Control of CORYCA (AUDPC) (Corynespora cassiicola; [8]): 84.0% | Percent Control of COLLCA (AUDPC) (Colletotrichum coccodes; [1]): 67% | Percent Control of COLLCA (AUDPC) (Colletotrichum coccodes; [2]): 46.0% | Percent Control of COLLCA (AUDPC) (Colletotrichum coccodes; Compound I 75 g/ha, Agnique BP420, 2300 mL/ha): 91.1% | Percent Control of COLLCA (AUDPC) (Colletotrichum coccodes; [3]): 75.5% | Percent Control of COLLCA (AUDPC) (Colletotrichum coccodes; [4]): 57.3% | Percent Control of COLLCA (AUDPC) (Colletotrichum coccodes; [5]): 91.0% | Percent Control of COLLCA (AUDPC) (Colletotrichum coccodes; [6]): 92.6% | Percent Control of COLLCA (AUDPC) (Colletotrichum coccodes; [7]): 95.7% | Percent Control of COLLCA (AUDPC) (Colletotrichum coccodes; [8]): 95.3%
